Among the data in patent publication US9187484B2 (Southern Research Institute, priority 2012, dated 2015) are IC50 values, retold here.

In this test the target is T1, LRRK2 (G2019S) (Homo sapiens, UniProt Q5S007, G2019S).
T1 construct: Recombinant GST-LRRK2 (delta970), purified from baculovirus infected insect cells (SF9); GST (N); host or cells: baculovirus infected insect cells (SF9)
Kind of test: LRRK2 inhibition, radiometric kinase assay with recombinant GST-LRRK2 (delta970) and peptide substrate. As to conditions: GST-LRRK2 (delta970) G2019S 30 nM, ATP ~52 μM (Km), 30 min at 30° C. The class given is biochemical. The procedure: Compounds were assessed for inhibition of LRRK2 inhibition using the following procedure.
Recombinant GST-LRRK2 (delta970), purified from baculovirus infected insect cells (SF9), at least 90% pure and either wild-type sequence or bearing the pathogenic G2019S mutation, was combined into a kinase buffer at 30 nM concentration. Kinase buffer consists of 50 mM Tris HCl pH 7.4, 1 mM EDTA, and 50 μM peptide substrate (amino acid sequence […]). Experimental compounds or control (no compound) were added at desired concentrations in DMSO and water, where final concentration of DMSO in kinase reactions was 0.1% for all drug concentrations. Activation buffer that consists of a final concentration in the reactions of 10 mM MgCl2 and ATP (˜92 μM for WT-LRRK2 reactions and ˜52 μM for G2019S-LRRK2, which represent respective Km ATP concentrations) were added to each reaction, in addition to 0.5 μCi of gamma-32-P-dATP per reaction. Reactions were incubated at 1400 RPM at 30° C. for 30 min. and then spotted in triplicate directly onto a slot-blot apparatus fitted with phospho-cellulose paper and allowed to dry. Each slot was then washed with 10 mM phosphoric acid buffer until beta-radiation could not be detected in eluted wash buffer, usually ˜1 mL per slot. Paper within each slot were excised and radiation measured by liquid scintillation.

pIC50: −log10 of the molar value.

T1 sequence (Q5S007 970-2527 G2019S limits assumed): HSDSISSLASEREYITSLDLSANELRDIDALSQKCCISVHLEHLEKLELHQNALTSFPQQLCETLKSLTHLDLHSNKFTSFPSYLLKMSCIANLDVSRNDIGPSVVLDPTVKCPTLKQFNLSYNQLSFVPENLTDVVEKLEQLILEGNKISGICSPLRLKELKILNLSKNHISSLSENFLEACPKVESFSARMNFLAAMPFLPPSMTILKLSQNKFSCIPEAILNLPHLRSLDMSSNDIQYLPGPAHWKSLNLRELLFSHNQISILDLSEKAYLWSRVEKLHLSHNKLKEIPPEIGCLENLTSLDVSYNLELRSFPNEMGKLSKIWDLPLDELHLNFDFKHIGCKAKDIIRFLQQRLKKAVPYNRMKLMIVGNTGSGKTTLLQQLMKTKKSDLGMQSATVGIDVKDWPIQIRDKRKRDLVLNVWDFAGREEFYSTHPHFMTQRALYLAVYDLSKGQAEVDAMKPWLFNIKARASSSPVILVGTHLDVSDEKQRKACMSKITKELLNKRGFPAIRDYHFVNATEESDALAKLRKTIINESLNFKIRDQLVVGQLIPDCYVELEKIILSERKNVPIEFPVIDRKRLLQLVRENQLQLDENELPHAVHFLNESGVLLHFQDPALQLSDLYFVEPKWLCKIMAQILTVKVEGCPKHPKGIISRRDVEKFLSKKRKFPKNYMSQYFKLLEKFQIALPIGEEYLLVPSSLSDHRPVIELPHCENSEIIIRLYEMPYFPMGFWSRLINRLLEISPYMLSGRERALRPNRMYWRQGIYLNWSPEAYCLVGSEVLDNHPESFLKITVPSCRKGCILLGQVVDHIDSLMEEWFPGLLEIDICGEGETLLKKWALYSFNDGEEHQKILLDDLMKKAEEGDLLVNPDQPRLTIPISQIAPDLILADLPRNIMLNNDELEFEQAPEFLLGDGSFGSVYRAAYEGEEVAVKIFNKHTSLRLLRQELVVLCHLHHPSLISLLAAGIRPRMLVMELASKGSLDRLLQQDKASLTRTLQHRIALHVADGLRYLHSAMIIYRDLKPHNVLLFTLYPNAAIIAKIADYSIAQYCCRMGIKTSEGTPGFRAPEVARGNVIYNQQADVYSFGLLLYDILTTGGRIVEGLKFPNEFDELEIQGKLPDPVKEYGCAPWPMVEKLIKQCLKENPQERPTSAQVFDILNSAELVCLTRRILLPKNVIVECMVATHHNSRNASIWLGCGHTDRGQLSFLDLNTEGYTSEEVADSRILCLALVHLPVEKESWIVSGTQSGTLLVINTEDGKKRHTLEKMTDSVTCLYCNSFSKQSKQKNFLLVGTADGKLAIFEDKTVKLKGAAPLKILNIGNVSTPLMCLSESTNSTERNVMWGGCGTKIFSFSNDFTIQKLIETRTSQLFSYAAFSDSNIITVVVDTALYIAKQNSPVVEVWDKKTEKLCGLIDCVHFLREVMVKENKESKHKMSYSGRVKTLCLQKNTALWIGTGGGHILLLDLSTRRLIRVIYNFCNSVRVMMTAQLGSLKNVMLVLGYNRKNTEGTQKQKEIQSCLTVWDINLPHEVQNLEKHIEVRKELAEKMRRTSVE

With `CCOC(=O)C(CC)Sc1ccc2nnc(-c3ccc(F)cc3)n2n1` (stereo not drawn) [Example 1, ethyl 2-((3-(4-fluorophenyl)-[1,2,4]triazolo[4,3-b]pyridazin-6-yl)thio)butanoate], the pIC50 – broadly, −log10 of the IC50, conventionally taken in molar units – is no more than 5.30. With `CCOC(=O)CSc1ccc2nnc(-c3ccncc3)n2n1` [Example 2, ethyl 2-((3-(pyridin-4-yl)-[1,2,4]triazolo[4,3-b]pyridazin-6-yl)thio)acetate], the pIC50 was no more than 5.30.

`NC(=O)CSc1ccc2nnc(-c3cccs3)n2n1` [Example 3, 2-((3-(thiophen-2-yl)-[1,2,4]triazolo[4,3-b]pyridazin-6-yl)thio)acetamide]: the pIC50 was 6.00 to 7.00. With `NC(=O)CSc1ccc2nnc(-c3ccncc3)n2n1` [Example 4, 2-((3-(pyridin-4-yl)-[1,2,4]triazolo[4,3-b]pyridazin-6-yl)thio)acetamide], the pIC50 was no more than 5.30. For `NC(=O)CSc1ccc2nnc(-c3ccsc3)n2n1` [Example 5, 2-((3-(thiophen-3-yl)-[1,2,4]triazolo[4,3-b]pyridazin-6-yl)thio)acetamide], the pIC50 is 6.00 to 7.00. As to `CCC(Sc1ccc2nnc(-c3ccc(F)cc3)n2n1)C(=O)O` (stereo not drawn) [Example 6, 2-((3-(4-fluorophenyl)-[1,2,4]triazolo[4,3-b]pyridazin-6-yl)thio)butanoic acid], the pIC50 was 6.00 to 7.00.

For the compound `CCC(Sc1ccc2nnc(-c3ccc(F)cc3)n2n1)C(=O)Nc1nccs1` (stereo not drawn) [Example 7, 2-((3-(4-fluorophenyl)-[1,2,4]triazolo[4,3-b]pyridazin-6-yl)thio)-N-(thiazol-2-yl)butanamide], the pIC50 was no more than 5.30. For `CCC(Sc1ccc2nnc(-c3ccc(F)cc3)n2n1)C(=O)N1CCCC1` (stereo not drawn) [Example 8, 2-((3-(4-fluorophenyl)-[1,2,4]triazolo[4,3-b]pyridazin-6-yl)thio)-1-(pyrrolidin-1-yl)butan-1-one], the pIC50 was 6.00 to 7.00. The value for `CCC(Sc1ccc2nnc(-c3ccc(F)cc3)n2n1)C(=O)N1CCCCC1` (stereo not drawn) [Example 9, 2-((3-(4-fluorophenyl)-[1,2,4]triazolo[4,3-b]pyridazin-6-yl)thio)-1-(piperidin-1-yl)butan-1-one] was 5.30 to 6.00; that for `NC(=O)CSc1ccc2nnc(C3CCCCC3)n2n1` [Example 10, 2-((3-cyclohexyl-[1,2,4]triazolo[4,3-b]pyridazin-6-yl)thio)acetamide] was no more than 5.30; that for `O=C(CSc1ccc2nnc(-c3cccs3)n2n1)N1CCCCC1` [Example 11, 1-(piperidin-1-yl)-2-((3-(thiophen-2-yl)-[1,2,4]triazolo[4,3-b]pyridazin-6-yl)thio)ethanone] was 6.00 to 7.00.

On to `CCC(Sc1ccc2nnc(-c3ccc(F)cc3)n2n1)C(=O)Nc1cnc2ccccc2c1` (stereo not drawn) [Example 12], for which the pIC50 was no more than 5.30. The value for `Cc1ccc(-c2nnc3ccc(SCC(=O)O)nn23)cc1` [Example 13, 2-((3-(p-tolyl)-[1,2,4]triazolo[4,3-b]pyridazin-6-yl)thio)acetic acid] was 5.30 to 6.00; that for `CCC(Sc1ccc2nnc(-c3ccc(F)cc3)n2n1)C(=O)Nc1ccccc1C(F)(F)F` (stereo not drawn) [Example 14, 2-((3-(4-fluorophenyl)-[1,2,4]triazolo[4,3-b]pyridazin-6-yl)thio)-N-(2-(trifluoromethyl)phenyl)butanamide] was no more than 5.30; that for `NC(=O)CSc1ccc2nnc(C3CCCC3)n2n1` [Example 15, 2-((3-cyclopentyl-[1,2,4]triazolo[4,3-b]pyridazin-6-yl)thio)acetamide] was 5.30 to 6.00. Then `NC(=O)CSc1ccc2nnc(-c3ccccn3)n2n1` [Example 16, 2-((3-(pyridin-2-yl)-[1,2,4]triazolo[4,3-b]pyridazin-6-yl)thio)acetamide], with no more than 5.30. For the compound `O=C(O)CSc1ccc2nnc(-c3ccc(F)cc3)n2n1` [Example 17, 2-((3-(4-fluorophenyl)-[1,2,4]triazolo[4,3-b]pyridazin-6-yl)thio)acetic acid], the pIC50 is no more than 5.30. Consider `CCC(Sc1ccc2nnc(-c3cccs3)n2n1)C(=O)O` (stereo not drawn) [Example 18, 2-((3-(thiophen-2-yl)-[1,2,4]triazolo[4,3-b]pyridazin-6-yl)thio)butanoic acid], for which the pIC50 was 6.00 to 7.00. Take `NC(=O)CSc1ccc2nnc(-c3ccc(F)cc3)n2n1` [Example 19, 2-((3-(4-fluorophenyl)-[1,2,4]triazolo[4,3-b]pyridazin-6-yl)thio)acetamide]: the pIC50 is 5.30 to 6.00. Regarding `c1csc(-c2nnc3ccc(N4CCCCC4)nn23)c1` [Example 20, 6-(piperidin-1-yl)-3-(thiophen-2-yl)-[1,2,4]triazolo[4,3-b]pyridazine], the pIC50 is no more than 5.30.

Take `O=C(CSc1ccc2nnc(-c3cccs3)n2n1)N1CCCC1` [Example 21, 1-(pyrrolidin-1-yl)-2-((3-(thiophen-2-yl)-[1,2,4]triazolo[4,3-b]pyridazin-6-yl)thio)ethanone]: the pIC50 is 6.00 to 7.00.

`O=C(CSc1ccc2nnc(-c3cccs3)n2n1)Nc1nccs1` [Example 23, N-(thiazol-2-yl)-2-((3-(thiophen-2-yl)-[1,2,4]triazolo[4,3-b]pyridazin-6-yl)thio)acetamide]: the pIC50 is 6.00 to 7.00.

On to `O=C(CSc1ccc2nnc(-c3cccs3)n2n1)N1CCOCC1` [Example 24, 1-morpholino-2-((3-(thiophen-2-yl)-[1,2,4]triazolo[4,3-b]pyridazin-6-yl)thio)ethanone], for which the pIC50 was 6.00 to 7.00.

Regarding `Cc1ccc(-c2nnc3ccc(SCC(=O)N4CCCC4)nn23)cc1` [Example 25, 1-(pyrrolidin-1-yl)-2-((3-(p-tolyl)-[1,2,4]triazolo[4,3-b]pyridazin-6-yl)thio)ethanone], the pIC50 was 5.30 to 6.00. With `NC(=O)CSc1ccc2nnc(-c3ccco3)n2n1` [Example 26, 2-((3-(furan-2-yl)-[1,2,4]triazolo[4,3-b]pyridazin-6-yl)thio)acetamide], the pIC50 was 6.00 to 7.00.

As for `O=C(O)CSc1ccc2nnc(-c3cccs3)n2n1` [Example 27, 2-((3-(thiophen-2-yl)-[1,2,4]triazolo[4,3-b]pyridazin-6-yl)thio)acetic acid], the pIC50 was no more than 5.30.

`O=C(O)CSc1ccc2nnc(-c3ccco3)n2n1` [Example 28, 2-((3-(furan-2-yl)-[1,2,4]triazolo[4,3-b]pyridazin-6-yl)thio)acetic acid]: the pIC50 is no more than 5.30. As for `NC(=O)CSc1ccc2nnc(-c3cc4ccccc4s3)n2n1` [Example 29, 2-((3-(benzo[b]thiophen-2-yl)-[1,2,4]triazolo[4,3-b]pyridazin-6-yl)thio)acetamide], the pIC50 was no more than 5.30. Regarding `O=C(O)CSc1ccc2nnc(-c3cc4ccccc4s3)n2n1` [Example 30, 2-((3-(benzo[b]thiophen-2-yl)-[1,2,4]triazolo[4,3-b]pyridazin-6-yl)thio)acetic acid], the pIC50 is no more than 5.30. For `O=C(O)CSc1ccc2nnc(-c3cc4ccccc4o3)n2n1` [Example 31, 2-((3-(benzofuran-2-yl)-[1,2,4]triazolo[4,3-b]pyridazin-6-yl)thio)acetic acid], the pIC50 is no more than 5.30. Regarding `NC(=O)CSc1ccc2nnc(-c3cc4ccccc4o3)n2n1` [Example 32, 2-((3-(benzofuran-2-yl)-[1,2,4]triazolo[4,3-b]pyridazin-6-yl)thio)acetamide], the pIC50 was no more than 5.30. For `CCC(Sc1ccc2nnc(-c3nccs3)n2n1)C(=O)O` (stereo not drawn) [Example 33, 2-((3-(thiazol-2-yl)-[1,2,4]triazolo[4,3-b]pyridazin-6-yl)thio)butanoic acid], the pIC50 was 6.00 to 7.00.

Consider `NC(=O)CSc1ccc2nnc(-c3csc4ccccc34)n2n1` [Example 35, 2-((3-(benzo[b]thiophen-3-yl)-[1,2,4]triazolo[4,3-b]pyridazin-6-yl)thio)acetamide], for which the pIC50 was 5.30 to 6.00.

For the compound `CC(Sc1ccc2nnc(-c3cccs3)n2n1)C(=O)O` (stereo not drawn) [Example 36, 2-((3-(thiophen-2-yl)-[1,2,4]triazolo[4,3-b]pyridazin-6-yl)thio)propanoic acid], the pIC50 is 6.00 to 7.00.

As to `NC(=O)CSc1ccc2nnc(-c3nccs3)n2n1` [Example 37, 2-((3-(thiazol-2-yl)-[1,2,4]triazolo[4,3-b]pyridazin-6-yl)thio)acetamide], the pIC50 was no more than 5.30. Then `O=C(O)CSc1ccc2nnc(-c3csc4ccccc34)n2n1` [Example 38, 2-((3-(benzo[b]thiophen-3-yl)-[1,2,4]triazolo[4,3-b]pyridazin-6-yl)thio)acetic acid], with no more than 5.30. Then `Cc1scc(-c2nnc3ccc(SCC(=O)O)nn23)c1-c1ccccc1` [Example 39, 2-((3-(5-methyl-4-phenylthiophen-3-yl)-[1,2,4]triazolo[4,3-b]pyridazin-6-yl)thio)acetic acid], with no more than 5.30. `Cc1scc(-c2nnc3ccc(SCC(N)=O)nn23)c1-c1ccccc1` [Example 40, 2-((3-(5-methyl-4-phenylthiophen-3-yl)-[1,2,4]triazolo[4,3-b]pyridazin-6-yl)thio)acetamide]: the pIC50 is no more than 5.30. Regarding `CCCCC(Sc1ccc2nnc(-c3cccs3)n2n1)C(=O)O` (stereo not drawn) [Example 41, 2-((3-(thiophen-2-yl)-[1,2,4]triazolo[4,3-b]pyridazin-6-yl)thio)hexanoic acid], the pIC50 is 5.30 to 6.00.
